Assay results as given in ChEMBL document CHEMBL3045015, “Synthesis and physiological evaluation of new N-nitroso-2,6-dicarbethoxy-3,5-diaryltetrahydro-1,4-thiazine-1,1-dioxides” (Med Chem Res, 2012).

Tests used:
[1] = test system: Streptococcus pyogenes; assay: Ratio of compound IZ to amikacin IZ for Streptococcus pyogenes MTCC 389 at 10 ug/ml by disk diffusion method; format: functional
[2] = test system: Streptococcus pyogenes; assay: Antibacterial activity against Streptococcus pyogenes MTCC 389 at 10 ug/ml by disk diffusion method; format: functional; settings: read-out: IZ
[3] = test system: Staphylococcus aureus; assay: Antibacterial activity against Staphylococcus aureus MTCC 96 at 10 ug/ml by disk diffusion method; format: functional; settings: read-out: IZ
[4] = test system: Mus musculus; assay: Acute toxicity in Mus musculus (mouse) at 300 mg/kg; format: organism-based; set-up: dose 300 mg/kg; settings: in vivo
[5] = test system: Pseudomonas aeruginosa; assay: Antibacterial activity against Pseudomonas aeruginosa […] at 10 ug/ml by disk diffusion method; format: functional; settings: read-out: IZ
[6] = test system: Escherichia coli; assay: Antibacterial activity against Escherichia coli MTCC 722 at 10 ug/ml by disk diffusion method; format: functional; settings: read-out: IZ
[7] = test system: Staphylococcus aureus; assay: Ratio of compound IZ to amikacin IZ for Staphylococcus aureus MTCC 96 at 10 ug/ml by disk diffusion method; format: functional
[8] = test system: Pseudomonas aeruginosa; assay: Ratio of compound IZ to amikacin IZ for Pseudomonas aeruginosa […] at 10 ug/ml by disk diffusion method; format: functional
[9] = test system: Candida albicans; assay: Antifungal activity against Candida albicans MTCC 227 at 10 ug/ml by disk diffusion method; format: functional; settings: read-out: IZ
[10] = test system: Escherichia coli; assay: Ratio of compound IZ to amikacin IZ for Escherichia coli MTCC 722 at 10 ug/ml by disk diffusion method; format: functional
[11] = test system: Candida albicans; assay: Ratio of compound IZ to nystatin IZ for Candida albicans MTCC 227 at 10 ug/ml by disk diffusion method; format: functional

SMILES | Ratio [1] | zone of inhibition at 10 µg/mL [2] [mm] | zone of inhibition at 10 µg/mL [3] [mm] | Activity [4] | zone of inhibition at 10 µg/mL [5] [mm] | zone of inhibition at 10 µg/mL [6] [mm] | Ratio [7] | Ratio [8] | zone of inhibition at 10 µg/mL [9] [mm] | Ratio [10] | Ratio [11]
CCOC(=O)C1C(c2ccc(Cl)cc2)N(N=O)C(c2ccc(Cl)cc2)C(C(=O)OCC)S1(=O)=O (configuration not stated) | 0.5 | 10 | 10 | Non-toxic | 12 | 13 | 0.56 | 0.71 | 16 | 0.76 | 0.84
CCOC(=O)C1C(c2ccc[nH]2)N(N=O)C(c2ccc[nH]2)C(C(=O)OCC)S1(=O)=O (configuration not stated) | 0.7 | 14 | 13 | Non-toxic | 12 | 11 | 0.72 | 0.71 | 11 | 0.65 | 0.58
NCC[C@H](O)C(=O)N[C@@H]1C[C@H](N)[C@@H](O[C@H]2O[C@H](CN)[C@@H](O)[C@H](O)[C@H]2O)[C@H](O)[C@H]1O[C@H]1O[C@H](CO)[C@@H](O)[C@H](N)[C@H]1O [AMIKACIN] | – | 20 | 18 | – | 17 | 17 | – | – | – | – | –
CCOC(=O)C1C(c2ccc(OC)cc2)N(N=O)C(c2ccc(OC)cc2)C(C(=O)OCC)S1(=O)=O (configuration not stated) | 0.65 | 13 | 11 | Non-toxic | 18 | 12 | 0.61 | 1.11 | 13 | 0.71 | 0.69
CCOC(=O)C1C(c2cccc(Cl)c2)N(N=O)C(c2cccc(Cl)c2)C(C(=O)OCC)S1(=O)=O (configuration not stated) | 0.4 | 8 | 11 | Non-toxic | 10 | 14 | 0.61 | 0.59 | 15 | 0.82 | 0.79
CCOC(=O)C1C(c2c[nH]c3ccccc23)N(N=O)C(c2c[nH]c3ccccc23)C(C(=O)OCC)S1(=O)=O (configuration not stated) | 0.45 | 9 | 8 | Non-toxic | 11 | 12 | 0.44 | 0.65 | 15 | 0.71 | 0.79
CCOC(=O)C1C(c2ccc(OC)c(OC)c2)N(N=O)C(c2ccc(OC)c(OC)c2)C(C(=O)OCC)S1(=O)=O (configuration not stated) | 0.4 | 8 | 12 | Non-toxic | 11 | 13 | 0.67 | 0.65 | 14 | 0.76 | 0.74
CCOC(=O)C1C(c2ccc(C)cc2)N(N=O)C(c2ccc(C)cc2)C(C(=O)OCC)S1(=O)=O (configuration not stated) | 0.85 | 17 | 11 | Non-toxic | 9 | 17 | 0.61 | 0.53 | 11 | 1 | 0.58
CCOC(=O)C1C(c2ccccn2)N(N=O)C(c2ccccn2)C(C(=O)OCC)S1(=O)=O (configuration not stated) | 0.55 | 11 | 13 | Non-toxic | 9 | 10 | 0.72 | 0.53 | 12 | 0.59 | 0.63
CCOC(=O)C1C(c2cccs2)N(N=O)C(c2cccs2)C(C(=O)OCC)S1(=O)=O (configuration not stated) | 0.75 | 15 | 17 | Non-toxic | 14 | 13 | 0.94 | 0.82 | 20 | 0.76 | 1.11
CCOC(=O)C1C(c2cccc([N+](=O)[O-])c2)N(N=O)C(c2cccc([N+](=O)[O-])c2)C(C(=O)OCC)S1(=O)=O (configuration not stated) | 0.45 | 9 | 12 | Non-toxic | 15 | 14 | 0.67 | 0.88 | 13 | 0.82 | 0.69
CCOC(=O)C1C(c2cc3ccccc3nc2Cl)N(N=O)C(c2cc3ccccc3nc2Cl)C(C(=O)OCC)S1(=O)=O (configuration not stated) | 0.6 | 12 | 14 | Non-toxic | 10 | 9 | 0.78 | 0.59 | 18 | 0.53 | 0.95
CCOC(=O)C1C(c2cccnc2)N(N=O)C(c2cccnc2)C(C(=O)OCC)S1(=O)=O (configuration not stated) | 0.4 | 8 | 14 | Non-toxic | 11 | 12 | 0.78 | 0.65 | 15 | 0.71 | 0.79
CCOC(=O)C1C(c2ccccc2)N(N=O)C(c2ccccc2)C(C(=O)OCC)S1(=O)=O (configuration not stated) | 0.75 | 15 | 11 | Non-toxic | 13 | 12 | 0.61 | 0.76 | 13 | 0.71 | 0.69
CCOC(=O)C1C(c2ccco2)N(N=O)C(c2ccco2)C(C(=O)OCC)S1(=O)=O (configuration not stated) | 0.55 | 11 | 12 | Non-toxic | 10 | 15 | 0.67 | 0.59 | 14 | 0.88 | 0.74
CCOC(=O)C1C(c2ccc([N+](=O)[O-])cc2)N(N=O)C(c2ccc([N+](=O)[O-])cc2)C(C(=O)OCC)S1(=O)=O (configuration not stated) | 0.85 | 17 | 13 | Non-toxic | 11 | 17 | 0.72 | 0.65 | 12 | 1 | 0.63
CCOC(=O)C1C(c2ccsc2)N(N=O)C(c2ccsc2)C(C(=O)OCC)S1(=O)=O (configuration not stated) | 0.45 | 9 | 15 | Non-toxic | 13 | 14 | 0.83 | 0.76 | 14 | 0.82 | 0.74
CCOC(=O)C1C(c2ccc3c(c2)OCO3)N(N=O)C(c2ccc3c(c2)OCO3)C(C(=O)OCC)S1(=O)=O (configuration not stated) | 0.55 | 11 | 9 | Non-toxic | 12 | 8 | 0.5 | 0.71 | 10 | 0.47 | 0.53
CCOC(=O)C1C(c2ccccc2Cl)N(N=O)C(c2ccccc2Cl)C(C(=O)OCC)S1(=O)=O (configuration not stated) | 0.5 | 10 | 9 | Non-toxic | 12 | 13 | 0.5 | 0.71 | 16 | 0.76 | 0.84
